According to patent US6759431B2, “Compositions and methods for treating or preventing diseases of body passageways” (Angiotech Pharmaceuticals, Inc., priority 1996, dated 2004):
Where “and” joins values, the source holds several entries; their conditions need not be identical. Equal values may be shown once. Read-outs that look alike come from different tables or passages of the source.

How the values were obtained:
[1] = system: HT-29 colon, MCF-7 breast and SKMES1 non-small cell lung human tumor cell lines; experiment: Radiometric (Bactec) cytotoxicity, tumor cell lines; format: cell-based; settings: continuous exposure
Method: A. Human Tumor Cell Lines The HT-29 colon, MCF-7 breast and SKMES1 non-small cell lung human tumor cell lines were obtained from the American Type Culture Collection. The HT-29 colon cell line was cultured in RPMI 1640 with 10% heat inactivated fetal bovine serum (HIFBS), the MCF-7 breast cell line in Iscove's modified Eagles medium with 5% HIFBS plus 10^-9 M insulin, and the SKMES1 lung cell line in Eagle's minimal essential medium with 10% non-heat inactivated FBS.
(§1) The Bactec system (Johnston Laboratories, Towson, Md.) is based on a clinical instrument which was developed to detect bacteria in blood cultures and has been used to screen for new antineoplastic agents. This radiometric system is a rapid, semiautomated system which utilizes the inhibition of the conversion of ^14C glucose to […] as an index of cytotoxicity. The Bactec machine automatically flushes out the ^14CO2 into an ion chamber where the signal of the radiolabelled CO2 is changed into a proportional electrical signal or growth index value on a scale of 1 to 1000. […] The growth index values of BMOV treated cells were compared to the growth index values of non-treated cells and the % survival compared to untreated controls was calculated.

[2] = system: MDAY-D2 tumor; experiment: BMOV microspheres, tumor growth in mice; format: in vivo; settings: s.c.
Method: (§2) Twenty of twenty-four mice were injected subcutaneously with […] of MDAY-D2 cells with density of 10×10^6/ml. On day 6 the mice were divided into 6 groups. Group 1, empty control, group 2, tumor control, group 3, were injected subcutaneously with 0.25 mg/100 ul BMOV, twice a day. Group 4 was injected IP with 20 mg PLLA microspheres containing 5 mg of BMOV. Group 5 was injected IP with 10 mg of BMOV microspheres on day 6 and day 9 respectively. Group 6 was injected intramuscularly with 10 mg of BMOV microspheres on day 6 and day 9. On day 16, the mice were sacrificed and tumors were dissected.

[3] = Body weights of mice, BMOV microsphere study; format: in vivo; settings: 0.25 mg × 1, subcutaneous, in g (unit assumed)
Method: as §2

[4] = Solubility of vanadium complexes in PBS/ALB; format: physicochemical; settings: 10 mM PBS with albumin, pH 7.4
Method: Quantitative analysis (UV/VIS spectrophometric analysis) was done with different concentrations of vanadium solutions to obtain the wavelengths of peak absorbance and the calibration equations. Solubility of vanadium was studies in 10 mM phosphate buffered saline with albumin (PBS/ALB) (pH 7.4). 1%, 5%, 10%, and 20% (% vanadium complex in PCL) of each organic complex form of vanadium were encapsulated in a biodegradable polymer PCL and/or in blends of PLC with MePEG (MW 350) to produce a polymeric drug delivery product called a “thermopaste”. In vitro release studies of the various forms of vanadium from thermopastes were carried out at 37° C. in PBS/ALB with vanadium release measured by UV/VIS absorbance spectroscopy.

[5] = system: normal human bone marrow cells; experiment: Radiometric (Bactec) cytotoxicity, marrow cells; format: cell-based
Method: Normal human bone marrow (histologically negative for tumor cells) was obtained from patients who were to have bone marrow transplants for their solid tumors but died before the marrow was used. After centrifugation, the buffy coat was removed and cells were treated with lysis buffer and washed twice with and then resuspended in RPMI 1640 with 20% HIFBS. The cells were drawn through a 25 g needle and counted.
as §1

[6] = system: CAM; format: in vivo, chick; settings: for drug loading that was toxic to the embryo: chick, in vivo
Method: Vinca alkaloids (vinblastine and vincristine) were ground with a pestle and mortar to reduce the particle size to below 5 microns. They were then mixed as a dry powder with polycaprolactone (molecular wt. 18000 Birmingham Polymers, AL USA). The mixture is heated to 65° C. for 5 minutes and the molten polymer/agent mixture is stirred into a smooth paste for 5 minutes. The molten paste is then taken into a 1 ml syringe and extruded to form 3 mg pellets. These pellets were then tested in the CAM assay.

[7] = Stability of paclitaxel in cyclodextrin solutions; format: physicochemical
Method: The solutions containing 20% HPβCD or HPγCD had pH values of 3.9 and 5.2, respectively. The stability of paclitaxel in cyclodextrin solutions was investigated by assaying paclitaxel in solutions (20 μg ml^−1) containing 10 or 20% HPγ-CD or HPβ-CD in either water or a 50:50 water-ethanol mixture at 37° C. or 55° C. at various time intervals. In addition, stability of paclitaxel in solutions (1 μg/ml) containing 1%, 2% or 5% HPβCD at 55° C. were determined.

[8] = Release from 50:50 ELVAX:poly-l-lactic acid microspheres, tumbling at 37° C.; format: physicochemical; settings: 18 hours tumbling at 37° C.
Method: Five hundred micrograms of either paclitaxel or baccatin (a paclitaxel analog, available from Inflazyme Pharmaceuticals Inc., Vancouver, British Columbia, Canada) are dissolved in 1 ml of a 50:50 ELVAX:poly-1-lactic acid mixture in dcm. Microspheres are then prepared in a dissolution machine (Six-spindle dissolution tester, VanderKanp, Van Kell Industries Inc., U.S.A.) in triplicate at 200 rpm, 42° C., for 3 hours. Microspheres so prepared are washed twice in water and sized on the microscope.
Determination of paclitaxel encapsulation is undertaken in a uv/vis assay (uv/vis lambda max. at 237 nm, fluorescence assay at excitation 237, emission at 325 nm; Fluorescence results are presented in square brackets [ ]).

[9] = Solubility of paclitaxel in cyclodextrin solutions; format: physicochemical; settings: 50% HPβCD in water, 37° C.
Method: Excess amounts of paclitaxel (5 mg) were added to aqueous solutions containing various concentrations of γ-CD, HPγ-CD, or HPβ-CD and tumbled gently for about 24 hours at 37° C. After equilibration, aliquots of the suspension were filtered through a 0.45 μm membrane filter (Millipore), suitably diluted and analyzed using HPLC. The mobile phase was composed of a mixture of acetonitrile, methanol and water (58:5:37) at a flow rate of 1.0 ml min^−1.

[10] = Complexation of paclitaxel with cyclodextrins (stability constants); format: physicochemical; settings: for estimated stability constants for first order complexes of paclitaxel-cyclodextrins / stability constants for second order complexes of paclitaxel-cyclodextrins: water, 37° C.
Method: Excess amounts of paclitaxel (5 mg) were added to aqueous solutions containing various concentrations of γ-CD, HPγ-CD, or HPβ-CD and tumbled gently for about 24 hours at 37° C. After equilibration, aliquots of the suspension were filtered through a 0.45 μm membrane filter (Millipore), suitably diluted and analyzed using HPLC. […] Aliquots were taken at various time intervals and assayed for paclitaxel.

[11] = fluorescence assay (square brackets)

Molecule: Cc1occc(=O)c1[O-].Cc1occc(=O)c1[O-].[O]=[V+2] [BMOV, Bis[maltolato(oxovanadium)] (IV)]]
- antineoplastic effect in vitro [1]: antineoplastic effect of BMOV have been shown in vitro
- Tumor weight, Average [2]: 0.15
- Tumor weight, individual mice ([2]; listed as BMOV solution): 0.04 and 0.4 and 0.12 and 0.07
- Body weights, Average [3]: 17.87
- Body weights, individual mice ([3]; listed as BMOV Solution): 18.4 and 17.3 and 18 and 17.8
- rate and extent of solubility, order [4]: V5>BMOV & BEMOV>PRC-V
- survival compared to untreated controls ([5]; continuous exposure, 50 μM): 49%
- effect on cells ([5]; one hour exposure, up to 50 μM): very little effect

Molecule: CC[C@]1(O)C[C@@H]2CN(CCc3c([nH]c4ccccc34)[C@@](C(=O)OC)(c3cc4c(cc3OC)N(C)[C@H]3[C@@](O)(C(=O)OC)[C@H](OC(C)=O)[C@]5(CC)C=CCN6CC[C@]43[C@@H]65)C2)C1 [Vinblastine, vinblastine]
- angiogenesis inhibition on the CAM ([6]; 0.25%, 0.5% and 1% in PCL pellets): effective in inhibiting angiogenesis
- drug loading that was toxic to the embryo [6]: exceeding 2%

Molecule: CC[C@]1(O)C[C@H]2CN(CCc3c([nH]c4ccccc34)[C@@](C(=O)OC)(c3cc4c(cc3OC)N(C=O)[C@H]3[C@@](O)(C(=O)OC)[C@H](OC(C)=O)[C@]5(CC)C=CCN6CC[C@]43[C@@H]65)C2)C1 [vincristine]
- angiogenesis inhibition on the CAM ([6]; 0.5% and 0.1% drug loading in PCL pellets): all of the CAMs tested
- drug loading that was toxic to the embryo [6]: exceeding 2%

Molecule: CC(=O)O[C@H]1C(=O)[C@@]2(C)[C@H]([C@H](OC(=O)c3ccccc3)[C@]3(O)C[C@H](OC(=O)[C@H](O)[C@@H](NC(=O)c4ccccc4)c4ccccc4)C(C)=C1C3(C)C)[C@]1(OC(C)=O)CO[C@@H]1C[C@@H]2O [paclitaxel]
- degradation rate constant k (pseudo-first order) ([7]; 1 μg/ml paclitaxel, 1% HPβCD, 55° C.): 0.00338 h⁻¹
- degradation rate constant ([7]; 10% HPβCD (FIG. 47 legend: 20 μg ml^−1, 37° C.)): 0.00178 h⁻¹
- degradation rate constant ([7]; 10% HPγCD (FIG. 47 legend: 20 μg ml^−1, 37° C.)): 0.00096 h⁻¹
- percent of total released from the microspheres [8, 11]: 6%
- percent of total released from the microspheres ([8]; uv/vis assay): 10.3%
- fold increase over the solubility of paclitaxel in water [9]: ~2000 fold

Molecule: baccatin
- percent of total released from the microspheres [8, 11]: 60%
- percent of total released from the microspheres ([8]; uv/vis assay): 55%

Molecule: Hydroxypropyl-β-cyclodextrin [HPβCD]
- times lower than the stability constant in the absence of ethanol ([10]; 50% ethanol): about 300 times
- apparent stability constant for the complexation with paclitaxel ([10]; in the presence of 50% ethanol): 26.57 M⁻¹
- estimated stability constants for first order complexes of paclitaxel-cyclodextrins [10]: 7.2 M⁻¹
- stability constants for second order complexes of paclitaxel-cyclodextrins [10]: 7965 M⁻¹

Molecule: OC[C@H]1O[C@@H]2O[C@H]3[C@H](O)[C@@H](O)[C@@H](O[C@H]4[C@H](O)[C@@H](O)[C@@H](O[C@H]5[C@H](O)[C@@H](O)[C@@H](O[C@H]6[C@H](O)[C@@H](O)[C@@H](O[C@H]7[C@H](O)[C@@H](O)[C@@H](O[C@H]8[C@H](O)[C@@H](O)[C@@H](O[C@H]9[C@H](O)[C@@H](O)[C@@H](O[C@H]1[C@H](O)[C@H]2O)O[C@@H]9CO)O[C@@H]8CO)O[C@@H]7CO)O[C@@H]6CO)O[C@@H]5CO)O[C@@H]4CO)O[C@@H]3CO [γ-CD, γ-cyclodextrin]
- estimated stability constants for first order complexes of paclitaxel-cyclodextrins [10]: 3.1 M⁻¹
- stability constants for second order complexes of paclitaxel-cyclodextrins [10]: 785 M⁻¹

Molecule: hydroxypropyl-γ-cyclodextrin [HPγCD]
- estimated stability constants for first order complexes of paclitaxel-cyclodextrins [10]: 5.8 M⁻¹
- stability constants for second order complexes of paclitaxel-cyclodextrins [10]: 1886 M⁻¹
